Columns and labels:
Type in all cases: biochemical
[1] = biological target: T1, catalytic domain of human collagenase-1 (MMP-1) (Homo sapiens, UniProt P03956); assay: Enzymatic activity of the catalytic domain of human collagenase-1 (MMP-1), fluorogenic substrate
T1 construct: Determination of the Enzymatic Activity of the Catalytic Domain of Human Collagenase-1 (MMP-1); purchased Biocol, Potsdam MMP1
T1 sequence (P03956 100-269 limits assumed): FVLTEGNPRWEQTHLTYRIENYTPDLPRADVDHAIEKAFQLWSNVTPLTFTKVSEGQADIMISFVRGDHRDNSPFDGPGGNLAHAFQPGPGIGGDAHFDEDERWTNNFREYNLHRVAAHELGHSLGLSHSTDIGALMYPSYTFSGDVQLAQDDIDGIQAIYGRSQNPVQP
Description: Determination of the Enzymatic Activity of the Catalytic Domain of Human Collagenase-1 (MMP-1)
Activation of the proenzyme: 2 parts by volume of proenzyme are incubated with 1 part by volume of APMA solution at 37° C. for 1 hour. The APMA solution is prepared from a 10 mmol/l p-aminophenylmercuric acetate solution in 0.1 mmol/l NaOH by dilution with 3 parts by volume of tris/HCl buffer pH7.5 (see below). The pH is adjusted to between 7.0 and 7.5 by adding 1 mmol/l HCl. After activation of the enzyme, it is diluted with the tris/HCl buffer to a concentration of 2.5 μg/ml.
The enzymic activity is measured by incubating 10 μl of enzyme solution with 10 μl of a 3% strength (v/v) buffered dimethyl sulfoxide solution (reaction 1) for 15 minutes. The enzyme inhibitor activity is measured by incubating 10 μl of enzyme solution with 10 μl of a 3% strength (v/v) buffered dimethyl sulfoxide solution which contains the enzyme inhibitor (reaction 2).
The enzymic reaction both in the case of reaction 1 and in the case of reaction 2 is followed after addition of 10 μl of a 3% strength (v/v) aqueous dimethyl sulfoxide solution which contains 0.3 mmol/l of the substrate by fluorescence spectroscopy (328 nm (extinction)/393 nm (emission)), and the enzymic activity is presented as increase in extinction per minute.
The effect of the inhibitor is calculated as percentage inhibition by the following formula: % inhibition=100−[(increase in extinction/minute in reaction 2)/(increase in extinction/minute in reaction 1)×100].
The IC50, i.e. the inhibitor concentration necessary for 50% inhibition of the enzymic activity, is determined graphically by plotting the percentage inhibitions at various inhibitor concentrations.
The buffer solution contains 0.05% Brij (Sigma, Deisenhofen, Germany) and 0.1 mol/l tris/HCl, 0.1 mol/l NaCl, 0.01 mol/l CaCl2 (pH=7.5). The enzyme solution contains 2.5 μg/ml of the enzyme domain.
The substrate solution contains 0.3 mmol/l of the fluorogenic substrate (7-methoxycoumarin-4-yl)acetyl-Pro-Leu-Gly-Leu-3-(2′,4′-dinitrophenyl)-L-2,3-diaminopropionyl-Ala-Arg-NH2 (Bachem, Heidelberg, Germany).

[2] = biological target: T2, catalytic domain of human stromelysin (MMP-3) (Homo sapiens, UniProt P08254); assay: Enzymatic activity of the catalytic domain of human stromelysin (MMP-3), fluorogenic substrate
T2 construct: Preparation and determination of the enzymatic activity of the catalytic domain of human stromelysin (MMP-3); made in house
T2 sequence (P08254 100-272 limits assumed): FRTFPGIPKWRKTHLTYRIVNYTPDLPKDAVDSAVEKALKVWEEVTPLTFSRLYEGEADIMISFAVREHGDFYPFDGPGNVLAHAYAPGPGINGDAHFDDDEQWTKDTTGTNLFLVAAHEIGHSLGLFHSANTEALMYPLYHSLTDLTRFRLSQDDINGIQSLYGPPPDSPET
Description: (§1) Preparation and determination of the enzymatic activity of the catalytic domain of human stromelysin (MMP-3) and of neutrophil collagenase (MMP-8). The two enzymes stromelysin (MMP-3) and neutrophil collagenase (MMP-8) were prepared by the method of Ye et al. (Biochemistry; 31 (1992) pages 11 231-11 235). The enzymic activity or the effect of the enzyme inhibitor was measured by incubating 10 μl of enzyme solution with 10 μl of a 3% strength (v/v) buffered dimethyl sulfoxide solution which contained the enzyme inhibitor where appropriate, for 15 minutes. After addition of 10 μl of a 3% strength (v/v) aqueous dimethyl sulfoxide solution which contained 1 mmol/l of the substrate, the enzymic reaction was followed by fluorescence spectroscopy (328 nm (ex)/393 nm(em)).
(§2) The enzymic activity is presented as increase in extinction/minute. The IC50 values listed in Table 2 were determined as the inhibitor concentrations leading in each case to 50% inhibition of the enzyme.
(§3) The buffer solution contained 0.05% Brij (Sigma, Deisenhofen, Germany) and 0.1 mol/l Tris/HCl, 0.1 mol/l NaCl, 0.01 mol/l CaCl2 and 0.1 mol/l piperazine-N,N′-bis[2-ethanesulfonic acid] (pH=7.5).
(§4) The MMP-3 enzyme solution contained 2.3 μg/ml and the MMP-8 enzyme solution 0.6 μg/ml of one of the enzyme domains prepared by the method of Ye et al. The substrate solution contained 1 mmol/l of the fluorogenic substrate (7-methoxycoumarin-4-yl)acetyl-Pro-Leu-Gly-Leu-3-(2′,4′-dinitrophenyl)-L-2,3-diaminopropionyl-Ala-Arg-NH2 (Bachem, Heidelberg, Germany).

[3] = biological target: T3, catalytic domain of neutrophil collagenase (MMP-8) (Homo sapiens, UniProt P22894); assay: Enzymatic activity of the catalytic domain of neutrophil collagenase (MMP-8), fluorogenic substrate
T3 construct: catalytic domain of human stromelysin (MMP-3) and of neutrophil collagenase (MMP-8); made in house
T3 sequence (P22894 100-262 limits assumed): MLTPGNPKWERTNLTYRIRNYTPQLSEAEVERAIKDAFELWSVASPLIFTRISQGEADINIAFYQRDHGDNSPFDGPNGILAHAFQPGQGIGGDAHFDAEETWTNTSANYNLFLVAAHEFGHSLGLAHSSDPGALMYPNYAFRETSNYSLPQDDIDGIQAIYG
Description: as §1, §2, §3, §4

IC50 [1]	IC50 [2]	IC50 [3]	SMILES
> 10000 nM	> 10000 nM	410 nM	O=C(O)C1C2CCOC2CCN1S(=O)(=O)c1ccc(Oc2ccc(F)cc2)cc1 (stereo not drawn) [Example 10, 5-[4-(4-fluorophenoxy)benzenesulfonyl]octahydrofuro[3,2-c]pyridine-4-carboxylic acid]
14 nM	13 nM	1 nM	O=C(NO)[C@H]1[C@H]2CCO[C@H]2CCN1S(=O)(=O)c1ccc(-c2ccc(Cl)cc2)cc1 [Example 8]
> 10000 nM	3500 nM	54 nM	O=C(O)C1C2CCOC2CCN1S(=O)(=O)c1ccc(-c2ccc(Cl)cc2)cc1 (stereo not drawn) [Example 6, 5-(4′-chlorobiphenyl-4-sulfonyl)octahydrofuro[3,2-c]pyridine-4-carboxylic acid]
1400 nM	1500 nM	150 nM	O=C(NO)[C@@H]1[C@@H]2CCO[C@@H]2CCN1S(=O)(=O)c1ccc(Oc2ccc(F)cc2)cc1 [Example 13]
59 nM	17 nM	2 nM	N#Cc1ccc(Oc2ccc(S(=O)(=O)N3CC[C@@H]4OCC[C@@H]4[C@@H]3C(=O)NO)cc2)cc1 [Example 21]
43 nM	27 nM	24 nM	O=C(NO)C1C2CCOC2CCN1S(=O)(=O)c1ccc(Oc2ccc(Cl)cc2)cc1 (stereo not drawn) [Example 18, 5-[4-(4-chlorophenoxy)benzenesulfonyl]octahydrofuro[3,2-c]pyridine-4-(N-hydroxy)-carboxamide]
39 nM	34 nM	6 nM	O=C(NO)C1C2CCOC2CCN1S(=O)(=O)c1ccc(Oc2ccc(F)cc2)cc1 (stereo not drawn) [Example 11, 5-[4-(4-fluorophenoxy)benzenesulfonyl]octahydrofuro[3,2-c]pyridine-4-(N-hydroxy)-carboxamide]

More lines, now with the values behind:

SMILES	IC50 [1]	IC50 [2]	IC50 [3]
O=C(NO)[C@H]1[C@H]2CCO[C@H]2CCN1S(=O)(=O)c1ccc(Oc2ccc(F)cc2)cc1 [Example 12]	10 nM	14 nM	2 nM
CS(=O)(=O)c1ccc(Oc2ccc(S(=O)(=O)N3CC[C@@H]4OCC[C@@H]4[C@@H]3C(=O)NO)cc2)cc1 [Example 23]	640 nM	15 nM	2 nM
O=C(NO)C1C2CCOC2CCN1S(=O)(=O)c1ccc(-c2ccc(Cl)cc2)cc1 (stereo not drawn) [Example 7, 5-(4′-chlorobiphenyl-4-sulfonyl)octahydrofuro[3,2-c]pyridine-4-(N-hydroxy)-carboxamide]	29 nM	29 nM	2.4 nM
O=C(NO)[C@@H]1[C@@H]2CCO[C@@H]2CCN1S(=O)(=O)c1ccc(-c2ccc(Cl)cc2)cc1 [Example 9]	4100 nM	1100 nM	170 nM

Reference: patent publication US8039481B2, “Tetrahydrofuran derivatives for use as inhibitors of matrix metalloproteinases” (Sanofi-Aventis, priority 2005, dated 2011)
